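Test compounds were applied to cells in 96-well plates for 48 hours at 5 doses. GI50 = concentration required for 50% inhibition of growth.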 The source made the active and inactive calls. Cut-off read from the data, not from the text of the source: active = GI50 up to about 1.1 µM and inactive = higher.
What was measured:
Test in all cases: NCI tumour cell line growth inhibition, 48 h
[1] = tested on: A549
[2] = tested on: BT-549
[3] = tested on: CCRF-CEM
[4] = tested on: HL-60
[5] = tested on: LOX IMVI
[6] = tested on: M14
[7] = tested on: MDA-MB-435
[8] = tested on: NCI-H23
[9] = tested on: NCI-H522
[10] = tested on: PC-3
[11] = tested on: RPMI-8226
[12] = tested on: SF-268
[13] = tested on: SK-MEL-28
[14] = tested on: SNB-75
[15] = tested on: SR
[16] = tested on: UACC-257
[17] = tested on: UACC-62
[18] = tested on: NCI/ADR-RES
[19] = tested on: SK-OV-3

SMILES | GI50 [1] | GI50 [2] | GI50 [3] | GI50 [4] | GI50 [5] | GI50 [6] | GI50 [7] | GI50 [8] | GI50 [9] | GI50 [10] | GI50 [11] | GI50 [12] | GI50 [13] | GI50 [14] | GI50 [15] | GI50 [16] | GI50 [17] | GI50 [18] | GI50 [19]
O=c1/c(=C\c2ccccc2)sc2n1C(c1ccccc1)C1(O)CCCCC1N=2 (stereo unspecified) | 78.3 µM (inactive) | > 100 µM (inactive) | 91 µM (inactive) | 36 µM (inactive) | > 100 µM (inactive) | > 100 µM (inactive) | > 100 µM (inactive) | 56.9 µM (inactive) | > 100 µM (inactive) | 69.7 µM (inactive) | 59.8 µM (inactive) | > 100 µM (inactive) | > 100 µM (inactive) | > 100 µM (inactive) | 62.5 µM (inactive) | > 100 µM (inactive) | > 100 µM (inactive) |  | 
COC(=O)CC1(O)C(/C=C/c2ccccc2)C(C(=O)OC)C(=O)C(C(=O)OC)C1C(=O)OC (stereo unspecified) | > 100 µM (inactive) |  | 48.3 µM (inactive) | > 100 µM (inactive) | 26.7 µM (inactive) | > 100 µM (inactive) | > 100 µM (inactive) | > 100 µM (inactive) | 49.5 µM (inactive) | 78.7 µM (inactive) | > 100 µM (inactive) | > 100 µM (inactive) | > 100 µM (inactive) |  | > 100 µM (inactive) | > 100 µM (inactive) | 81.1 µM (inactive) | 85.3 µM (inactive) | > 100 µM (inactive)
CC1C(c2cc(C(C)(C)C)c(O)c(C(C)(C)C)c2)c2cc3c(cc2OC1N1CCOCC1)OCO3 (stereo unspecified) | 16.6 µM (inactive) |  | > 100 µM (inactive) |  | 20.3 µM (inactive) | 17.5 µM (inactive) | 24 µM (inactive) | 28.1 µM (inactive) | 21.2 µM (inactive) | 14.2 µM (inactive) | 26.9 µM (inactive) | 17.4 µM (inactive) | 15.6 µM (inactive) | 4.34 µM (inactive) | 64.7 µM (inactive) | 34.6 µM (inactive) | 26.4 µM (inactive) | 27.4 µM (inactive) | 
COC(=O)C1=Cc2cc(OC)c(OC)cc2[C@H](c2ccc(OC)c(OC)c2)C1C(=O)OC (stereo partly specified) | > 100 µM (inactive) |  | > 100 µM (inactive) | > 100 µM (inactive) | > 100 µM (inactive) | > 100 µM (inactive) |  | > 100 µM (inactive) |  |  | > 100 µM (inactive) | > 100 µM (inactive) | > 100 µM (inactive) | > 100 µM (inactive) | > 100 µM (inactive) | > 100 µM (inactive) | 98.9 µM (inactive) |  | > 100 µM (inactive)
c1ccc2c(c1)OC(N1CCCC1)c1cnc(N3CCOCC3)nc1-2 (stereo unspecified) | 57.7 µM (inactive) | 17.1 µM (inactive) | 31.9 µM (inactive) | 74.1 µM (inactive) | 54.3 µM (inactive) | 57.8 µM (inactive) | 67 µM (inactive) | 15.8 µM (inactive) |  | 41.3 µM (inactive) | 25.7 µM (inactive) | 40.6 µM (inactive) | > 100 µM (inactive) | 17.1 µM (inactive) | 38.5 µM (inactive) | 25.2 µM (inactive) | 43.1 µM (inactive) |  | 35.2 µM (inactive)
COc1cc([C@@H]2c3cc4c(cc3[C@@H](Nc3ccc(NC(=O)c5cc(NC(=O)c6cc([N+](=O)[O-])cn6C)cn5C)cc3)[C@H]3COC(=O)[C@H]23)OCO4)cc(OC)c1O | 0.239 µM (active) | > 100 µM (inactive) | 0.154 µM (active) | 0.16 µM (active) | 0.274 µM (active) | 1.78 µM (inactive) |  | 0.465 µM (active) | 0.261 µM (active) |  | 0.0324 µM (active) |  |  | 4.89 µM (inactive) | 0.0159 µM (active) | 0.687 µM (active) | 0.453 µM (active) | 0.573 µM (active) | 11.6 µM (inactive)
